What all share (type): cell-based
One assay has as its system Candida albicans. Description: MIC, broth microdilution.
In assay [1] the test system is Bacillus subtilis. Description: MIC, broth microdilution. Background: In broth dilution the organism is exposed to a series of concentrations in liquid medium.
For assay [2], the system named is Staphylococcus aureus. Description: MIC, broth microdilution.
In assay [3] the test system is Klebsiella pneumonia. As to the kind of experiment: MIC, broth microdilution. Conditions: Klebsiella pneumoniae.
Assay [4] relates to Pseudomonas aeruginosa. As to the kind of experiment: MIC, broth microdilution.
Assay [5] has as its system Bacillus subtilis. Description: Biofilm inhibition, crystal violet method.
Assay [6] relates to Staphylococcus aureus. As to the kind of experiment: Biofilm inhibition, crystal violet method.
Assay [7] deals with Klebsiella pneumonia. Description: Biofilm inhibition, crystal violet method.
The subject of assay [8] is Salmonella typhimurium. As to the kind of experiment: Biofilm inhibition, crystal violet method.
Assay [9] relates to Pseudomonas aeruginosa. Description: Biofilm inhibition, crystal violet method.
Assay [10] deals with Bacillus subtilis. Description: Bacterial lipid peroxidation. Conditions: treated at the MIC level.
The test system of assay [11] is Staphylococcus aureus. As to the kind of experiment: Bacterial lipid peroxidation. Conditions: treated at the MIC level.
Assay [12] relates to Klebsiella pneumonia. Description: Bacterial lipid peroxidation. Conditions: treated at the MIC level.
For assay [13], the system named is Salmonella typhimurium. As to the kind of experiment: Bacterial lipid peroxidation. Conditions: treated at the MIC level.
Assay [14] has as its system Pseudomonas aeruginosa. Description: Bacterial lipid peroxidation. Conditions: treated at the MIC level.

As usually defined, the MIC is the lowest concentration that inhibits growth of the organism.

Structures are written as SMILES. In brackets after ≈: the same amount, converted by molar mass.

As for `CCCS(=O)(=O)Oc1ccc(C=NNC(=O)CSc2nc3c(C)cccc3c(=O)n2-c2ccccc2)cc1OC` [5f, 2-Methoxy-4-((2-(2-((8-methyl-4-oxo-3-phenyl-3,4-dihydroquinazolin-2-yl)thio)-acetyl)hydrazono)methyl)phenyl propane-1-sulfonate], the MIC is 48 ± 4.18 µg/mL (≈ 82.7 µM) against Candida albicans; 23 ± 2.21 µg/mL (≈ 39.6 µM) against Bacillus subtilis [1]; 50 ± 0.88 µg/mL (≈ 86.1 µM) against Staphylococcus aureus [2]; 22 ± 4.72 µg/mL (≈ 37.9 µM) in the assay on Klebsiella pneumonia [3]; 45 ± 6.11 µg/mL (≈ 77.5 µM) against Pseudomonas aeruginosa [4]. The Biofilm inhibition in the assay on Bacillus subtilis [5] is 56.4 ± 3.12%; in the assay with Staphylococcus aureus [6] it was 45.1 ± 1.62%; in the assay with Klebsiella pneumonia [7], 59.6 ± 2.22%; in the assay with Salmonella typhimurium [8], 37.4 ± 1.82%; in the assay with Pseudomonas aeruginosa [9], 34.8 ± 4.07%. Further, the Lipid peroxidation efficiency in the assay with Bacillus subtilis [10] was 212.5 ± 5.52%; in the assay on Staphylococcus aureus [11], 151.2 ± 1.92%; with Klebsiella pneumonia [12] it was 230.4 ± 2.12%; with Salmonella typhimurium [13], 273.1 ± 4.33%; with Pseudomonas aeruginosa [14], 140.4 ± 5.02%.

For `Nc1ccc(S(=O)(=O)Nc2ncccn2)cc1` [Sulfadiazine, reference compound], the minimum inhibitory concentration (MIC) stood at 72 ± 3.44 µg/mL (≈ 288 µM) against Candida albicans; 46 ± 4.18 µg/mL (≈ 184 µM) against Bacillus subtilis [1]; 24 ± 3.92 µg/mL (≈ 95.9 µM) with Staphylococcus aureus [2]; 47 ± 3.18 µg/mL (≈ 188 µM) in the assay with Klebsiella pneumonia [3]; 70 ± 4.99 µg/mL (≈ 280 µM) with Pseudomonas aeruginosa [4].

For `O=C(O)c1cn(C2CC2)c2cc(N3CCNCC3)c(F)cc2c1=O` [Ciprofloxacin, reference compound], the Biofilm inhibition with Bacillus subtilis [5] was 49.2 ± 1.16%; in the assay with Staphylococcus aureus [6], 30.9 ± 4.52%; in the assay with Klebsiella pneumonia [7], 40.8 ± 3.88%; with Salmonella typhimurium [8], 58.3 ± 4.02%; with Pseudomonas aeruginosa [9], 45.2 ± 1.18%. Besides, the Lipid peroxidation efficiency in the assay with Bacillus subtilis [10] is 417.7 ± 2.83%; in the assay on Staphylococcus aureus [11], 319.8 ± 3.26%; in the assay with Klebsiella pneumonia [12], 327.4 ± 4.42%; with Salmonella typhimurium [13], 294.8 ± 1.99%; in the assay with Pseudomonas aeruginosa [14], 346.3 ± 2.62%.

As to `COc1ccc(C=NNC(=O)CSc2nc3c(C)cccc3c(=O)n2-c2ccccc2)cc1OS(C)(=O)=O` [5g, 2-Methoxy-5-((2-(2-((8-methyl-4-oxo-3-phenyl-3,4-dihydroquinazolin-2-yl)thio)-acetyl)hydrazono)methyl)phenyl methanesulfonate], the MIC against Candida albicans came out at 9 ± 3.17 µg/mL; against Bacillus subtilis [1] it was 48 ± 2.25 µg/mL; in the assay with Staphylococcus aureus [2], 11.3 ± 2.38 µg/mL; against Klebsiella pneumonia [3], 99 ± 5.02 µg/mL; against Pseudomonas aeruginosa [4], 96 ± 4.83 µg/mL. For the same molecule, the “Efficacy (MIC) relative to Sulfadiazine” value in the assay with Staphylococcus aureus [2] came out at 2 fold. The Biofilm inhibition in the assay on Bacillus subtilis [5] was determined as 45.1 ± 2.72%; in the assay on Staphylococcus aureus [6], 34.7 ± 4.02%; with Klebsiella pneumonia [7] it was 32.8 ± 1.92%; in the assay with Salmonella typhimurium [8], 33.9 ± 2.94%; in the assay with Pseudomonas aeruginosa [9], 20.1 ± 2.32%. The Lipid peroxidation efficiency worked out at 219.7 ± 2.71% with Bacillus subtilis [10]; 118.4 ± 2.26% with Staphylococcus aureus [11]; 285.2 ± 1.44% with Klebsiella pneumonia [12]; 210.4 ± 4.66% in the assay on Salmonella typhimurium [13]; 175.2 ± 3.29% in the assay with Pseudomonas aeruginosa [14].

Consider `CCS(=O)(=O)Oc1ccc(C=NNC(=O)CSc2nc3ccc(Cl)cc3c(=O)n2-c2ccccc2)cc1` [5k, 4-((2-(2-((6-Chloro-4-oxo-3-phenyl-3,4-dihydroquinazolin-2-yl)thio)acetyl)-hydrazono)methyl)phenyl ethanesulfonate], for which the MIC against Candida albicans worked out at 10 ± 2.55 µg/mL; with Bacillus subtilis [1], 49 ± 2.77 µg/mL; in the assay with Staphylococcus aureus [2], 52 ± 0.28 µg/mL; against Klebsiella pneumonia [3], 44 ± 1.88 µg/mL; in the assay with Pseudomonas aeruginosa [4], 97 ± 3.88 µg/mL. Also, the Biofilm inhibition in the assay on Bacillus subtilis [5] came to 63.7 ± 0.92%; with Staphylococcus aureus [6], 42.9 ± 2.62%; with Klebsiella pneumonia [7], 53.1 ± 2.12%; in the assay with Salmonella typhimurium [8], 61.9 ± 1.72%; in the assay on Pseudomonas aeruginosa [9] it was 38.7 ± 3.66%. Moreover, the Lipid peroxidation efficiency is recorded as 377.6 ± 3.44% in the assay on Bacillus subtilis [10]; 202.2 ± 2.17% with Staphylococcus aureus [11]; 295.2 ± 1.89% in the assay on Klebsiella pneumonia [12]; 278.3 ± 5.07% in the assay with Salmonella typhimurium [13]; 181.3 ± 6.06% with Pseudomonas aeruginosa [14].

Source of the values: publication PMC11726445 (RSC Advances, 2025).
